Source: patent US11622991B2, “Protocol for treatment of lupus nephritis” (Aurinia Pharmaceuticals Inc., priority 2017, dated 2023)

Test system: lupus nephritis
Experiment: Predictability of week 48 partial remission from early reduction in UPCR (Tables 4-8)
Type: in vivo, human
Protocol: In the study reported in Example 1, the predictability of outcomes based on markers at early time points were determined.
This is important because it is undesirable to subject a patient to unnecessary treatment, even if the treatment is relatively safe.
PR is defined as at least 50% reduction in proteinuria (i.e. UPCR).
Sensitivity is defined as the probability that a subject showing PR at 48 weeks would have shown a favorable result with regard to the marker at the designated early time point. In the tables below, this is the ratio of the number of subjects with favorable marker results (early drop or normalization) to the total subjects with 48 week PR.
Specificity is defined as the probability that a subject not showing PR at 48 weeks would have shown an unfavorable result with regard to the marker at the designated early time point. In the tables below, this is the ratio of the number of subjects with unfavorable marker results (no early drop or no normalization) to the total subjects with no 48 week PR.
Positive predictive value is defined as the probability that a subject showing a favorable result with respect to the marker at an earlier time point would show PR at 48 weeks. In the tables below, this is the ratio of the number of subjects with favorable marker results who have 48 week PR to those with favorable marker results (early reduction or yes column).
Negative predictive value is defined as the probability that a subject showing an unfavorable result with respect to the marker at an earlier time point would not show PR at 48 weeks. In the tables below, this is the ratio of the number of subjects with unfavorable marker results who have no PR at 48 weeks to the total subjects with unfavorable marker results (no early reduction or no column).

[1] = 20% reduction in UPCR, Week 20, 23.7 mg BID
[2] = 20% reduction in UPCR, Week 20, 39.5 mg BID
[3] = 20% reduction in UPCR, Week 24, 23.7 mg BID
[4] = 20% reduction in UPCR, Week 26, 23.7 mg BID
[5] = 20% reduction in UPCR, Week 26, 39.5 mg BID
[6] = 20% reduction in UPCR, Week 36, 23.7 mg BID
[7] = 20% reduction in UPCR, Week 36, 39.5 mg BID
[8] = 20% reduction in UPCR, Week 48, 23.7 mg BID
[9] = 25% reduction in UPCR, Week 2, 23.7 mg BID
[10] = 25% reduction in UPCR, Week 2, 39.5 mg BID
[11] = 25% reduction in UPCR, Week 4, 23.7 mg BID
[12] = 25% reduction in UPCR, Week 6, 23.7 mg BID
[13] = 25% reduction in UPCR, Week 8, 23.7 mg BID
[14] = 25% reduction in UPCR, Week 8, 39.5 mg BID
[15] = 25% reduction in UPCR, Week 12, 23.7 mg BID
[16] = 25% reduction in UPCR, Week 12, 39.5 mg BID
[17] = 25% reduction in UPCR, Week 16, 23.7 mg BID
[18] = 25% reduction in UPCR, Week 20, 23.7 mg BID
[19] = 25% reduction in UPCR, Week 20, 39.5 mg BID
[20] = 25% reduction in UPCR, Week 24, 23.7 mg BID
[21] = 25% reduction in UPCR, Week 24, 39.5 mg BID

With `C=C/C=C/C[C@@H](C)[C@@H](O)[C@H]1C(=O)N[C@@H](CC)C(=O)N(C)CC(=O)N(C)[C@@H](CC(C)C)C(=O)N[C@@H](C(C)C)C(=O)N(C)[C@@H](CC(C)C)C(=O)N[C@@H](C)C(=O)N[C@H](C)C(=O)N(C)[C@@H](CC(C)C)C(=O)N(C)[C@@H](CC(C)C)C(=O)N(C)[C@@H](C(C)C)C(=O)N1C` [voclosporin] the “Week 48 Partial Remission No Early Drop” value (20% reduction in UPCR, Week 16, 23.7 mg BID) was 3, the “Early Reduction No” value (20% reduction in UPCR, Week 16, 39.5 mg BID) was 11 and the “Early Reduction No” value [1] was 4. For the same compound, the “No Week 48 Partial Remission No Early Drop” value [1] was 4, the “Early Reduction No” value [2] was 9 and the “Week 48 Partial Remission No Early Drop” value [2] was 4. For the same compound, the “Early Reduction No” value [3] was 4, the “No Week 48 Partial Remission Early Drop” value [3] was 11 and the “No Week 48 Partial Remission No Early Drop” value [3] was 3. The “Week 48 Partial Remission No Early Drop” value [3] was 1, the “Early Reduction No” value (20% reduction in UPCR, Week 24, 39.5 mg BID) was 11 and the “Early Reduction No” value [4] was 3. For the same compound, the “No Week 48 Partial Remission Early Drop” value [4] was 9, the “No Week 48 Partial Remission No Early Drop” value [4] was 3 and the “Early Reduction No” value [5] was 4. The “No Week 48 Partial Remission No Early Drop” value [5] was 4, the “Early Reduction No” value [6] was 4 and the “No Week 48 Partial Remission Early Drop” value [6] was 10. The “No Week 48 Partial Remission No Early Drop” value [6] was 3, the “Week 48 Partial Remission No Early Drop” value [6] was 1 and the “Early Reduction No” value [7] was 8. The “Week 48 Partial Remission No Early Drop” value [7] was 2, the “Early Reduction No” value [8] was 2 and the “No Week 48 Partial Remission Early Drop” value [8] was 9. The “No Week 48 Partial Remission No Early Drop” value [8] was 2, the “No Week 48 Partial Remission Early Drop” value (20% reduction in UPCR, Week 48, 39.5 mg BID) was 10 and the “No Week 48 Partial Remission Early Drop” value [9] was 8. The “No Week 48 Partial Remission No Early Drop” value [9] was 16, the “No Week 48 Partial Remission No Early Drop” value [10] was 10 and the “Week 48 Partial Remission Early Drop” value [10] was 33. The “No Week 48 Partial Remission No Early Drop” value [11] was 11, the “Week 48 Partial Remission No Early Drop” value [11] was 11 and the “Week 48 Partial Remission No Early Drop” value (25% reduction in UPCR, Week 4, 39.5 mg BID) was 16. For the same compound, the “No Week 48 Partial Remission Early Drop” value [12] was 10, the “No Week 48 Partial Remission No Early Drop” value [12] was 8 and the “Week 48 Partial Remission No Early Drop” value [12] was 8. The “No Week 48 Partial Remission Early Drop” value [13] was 10, the “No Week 48 Partial Remission No Early Drop” value [13] was 9 and the “Early Reduction No” value [14] was 10. The “No Week 48 Partial Remission No Early Drop” value [14] was 4, the “Early Reduction No” value [15] was 10 and the “Week 48 Partial Remission No Early Drop” value [15] was 4. For the same compound, the “Early Reduction No” value [16] was 9, the “No Week 48 Partial Remission No Early Drop” value [16] was 4 and the “Early Reduction No” value [17] was 10. The “No Week 48 Partial Remission Early Drop” value [17] was 11, the “No Week 48 Partial Remission No Early Drop” value [17] was 7 and the “Week 48 Partial Remission No Early Drop” value [17] was 3. The “Week 48 Partial Remission No Early Drop” value (25% reduction in UPCR, Week 16, 39.5 mg BID) was 7, the “No Week 48 Partial Remission Early Drop” value [18] was 11 and the “Week 48 Partial Remission No Early Drop” value [18] was 1. The “Early Reduction No” value [19] was 9, the “Week 48 Partial Remission No Early Drop” value [19] was 4 and the “Early Reduction No” value [20] was 4. For the same compound, the “No Week 48 Partial Remission Early Drop” value [20] was 11, the “No Week 48 Partial Remission No Early Drop” value [20] was 3 and the “Week 48 Partial Remission No Early Drop” value [20] was 1. For the same compound, the “No Week 48 Partial Remission No Early Drop” value [21] was 7, the “Week 48 Partial Remission No Early Drop” value [21] was 7 and the “Early Reduction No” value (25% reduction in UPCR, Week 26, 23.7 mg BID) was 4.
